According to the CheMixHub viscosity set:

Assay: xn = mol fraction of the nth substance listed

FCC(F)(F)F + OCCO
viscosity [mPa·s], 101.32 kPa
Details	x2 = 0.948	x2 = 0.949	x2 = 0.964	x2 = 0.965	x2 = 0.974	x2 = 0.975
293.15 K	16.9	–	17.1	–	17.9	–
313.15 K	–	7.76	–	7.91	–	7.86

C1COCO1 + CCCCO
viscosity [mPa·s], 101 kPa
Details	298.15 K	303.15 K	313.15 K
x1 = 0.1001	–	1.74	–
x1 = 0.1022	1.884	–	1.354
x1 = 0.1981	1.493	–	1.109
x1 = 0.2001	–	1.373	–
x1 = 0.3001	–	1.113	–
x1 = 0.3055	1.201	–	0.9166
x1 = 0.4001	–	0.9587	–
x1 = 0.4054	1.014	–	0.7915
x1 = 0.5001	–	0.8419	–
x1 = 0.5008	0.8912	–	0.7023
x1 = 0.6001	–	0.7305	–
x1 = 0.6035	0.7757	–	0.6292
x1 = 0.7001	–	0.6582	–
x1 = 0.7024	0.6998	–	0.5763
x1 = 0.8001	–	0.6192	–
x1 = 0.8009	0.6441	–	0.5372
x1 = 0.9001	–	0.5873	–
x1 = 0.9002	0.6073	–	0.5116

CN1CCCCCC1=O + O
298.16 K, 101 kPa
Details	viscosity [mPa·s]
x2 = 0.0975	5.35
x2 = 0.2528	6.17
x2 = 0.4046	7.19
x2 = 0.4996	7.85
x2 = 0.577	8.2
x2 = 0.63	8.28
x2 = 0.7444	7.43
x2 = 0.8512	5.1

CC(=O)c1ccccc1 + c1ccccc1
298.15 K, 101 kPa
Details	viscosity [mPa·s]
x1 = 0.5	0.942
x1 = 0.75	1.27

CCC(O)CC + Cc1ccccc1
viscosity [mPa·s], 101 kPa
Details	x1 = 0.1	x1 = 0.1999	x1 = 0.2999	x1 = 0.4	x1 = 0.4999	x1 = 0.6	x1 = 0.6999	x1 = 0.8	x1 = 0.9001
303.15 K	0.5369	0.57	0.6172	0.6865	0.7794	0.9264	1.142	1.52	2.12
308.15 K	0.5072	0.5352	0.5765	0.6364	0.7145	0.8369	1.015	1.313	1.767
313.15 K	0.4793	0.5027	0.5395	0.5918	0.658	0.7604	0.9062	1.147	1.493
318.15 K	0.4555	0.4739	0.5062	0.5515	0.6092	0.6951	0.8461	1.013	1.285
323.15 K	0.433	0.4499	0.4765	0.5154	0.5649	0.6384	0.7404	0.9004	1.112

CC(C)OC(C)C + CC(C)O
viscosity [mPa·s], 100 kPa
Details	x1 = 0.0797	x1 = 0.1607	x1 = 0.2387	x1 = 0.3497	x1 = 0.4359	x1 = 0.5553	x1 = 0.6498	x1 = 0.7351	x1 = 0.848	x1 = 0.9369
293.15 K	1.78	1.32	1.02	0.755	0.635	0.52	0.458	0.418	0.38	0.35
298.15 K	1.55	1.18	0.92	0.68	0.572	0.48	0.43	0.395	0.36	0.332
303.15 K	1.39	1.05	0.84	0.63	0.53	0.45	0.404	0.375	0.344	0.318
308.15 K	1.21	0.94	0.75	0.56	0.48	0.417	0.379	0.356	0.328	0.305
313.15 K	1.05	0.83	0.67	0.51	0.44	0.383	0.356	0.334	0.311	0.29
318.15 K	0.93	0.74	0.6	0.465	0.4	0.354	0.331	0.313	0.293	0.276
323.15 K	0.82	0.647	0.522	0.41	0.361	0.327	0.309	0.295	0.276	0.26
